Patent publication US11458077B2, “Two-phase cosmetic composition comprising a 4-(3-alkoxy-4-hydroxyphenyl)alkyl ketone” (L'OREAL, priority 2017, dated 2022)

Experiment: Solubility of the ketone compound
Type: physicochemical

CCOc1cc(CCC(C)=O)ccc1O [ketone compound, 4-(3-Ethoxy-4-hydroxyphenyl)butan-2-one]
solubility in glycerol (glycerol): very low solubility
solubility in water (water): very low solubility
